The NIST ThermoML archive (doi:10.1021/je700260f)
± gives the expanded uncertainty stated by the source.

Settings: 323.15 K, Liquid, Vibrating tube method

SMILES: FC(C(F)(F)F)C(F)(F)F [1,1,1,2,3,3,3-heptafluoropropane]
- mass density (24369 kPa): 1441.6 ± 1.6 kg/m3
- mass density (24448 kPa): 1441.9 ± 1.6 kg/m3
- mass density (24476 kPa): 1442 ± 1.6 kg/m3
- mass density (24507 kPa): 1442.1 ± 1.6 kg/m3
- mass density (24535 kPa): 1442.3 ± 1.6 kg/m3
- mass density (24630 kPa): 1442.7 ± 1.6 kg/m3
- mass density (25178 kPa): 1445.1 ± 1.6 kg/m3
- mass density (25221 kPa): 1445.2 ± 1.6 kg/m3
- mass density (25254 kPa): 1445.3 ± 1.6 kg/m3
- mass density (25279 kPa): 1445.5 ± 1.6 kg/m3
- mass density (25317 kPa): 1445.6 ± 1.6 kg/m3
- mass density (25347 kPa): 1445.8 ± 1.6 kg/m3
- mass density (25380 kPa): 1445.9 ± 1.6 kg/m3
- mass density (25479 kPa): 1446.3 ± 1.6 kg/m3
- mass density (25518 kPa): 1446.5 ± 1.6 kg/m3
- mass density (25548 kPa): 1446.5 ± 1.6 kg/m3
- mass density (25582 kPa): 1446.8 ± 1.6 kg/m3
- mass density (25619 kPa): 1447 ± 1.6 kg/m3
- mass density (25648 kPa): 1447.1 ± 1.6 kg/m3
- mass density (25678 kPa): 1447.1 ± 1.6 kg/m3
- mass density (25713 kPa): 1447.3 ± 1.6 kg/m3
- mass density (25743 kPa): 1447.4 ± 1.6 kg/m3
- mass density (25772 kPa): 1447.5 ± 1.6 kg/m3
- mass density (25810 kPa): 1447.7 ± 1.6 kg/m3
- mass density (25835 kPa): 1447.8 ± 1.6 kg/m3
- mass density (25868 kPa): 1447.9 ± 1.6 kg/m3
- mass density (25896 kPa): 1448 ± 1.6 kg/m3
- mass density (25923 kPa): 1448.1 ± 1.6 kg/m3
- mass density (26006 kPa): 1448.7 ± 1.6 kg/m3
- mass density (26035 kPa): 1448.7 ± 1.6 kg/m3
- mass density (26099 kPa): 1449 ± 1.6 kg/m3
- mass density (26134 kPa): 1449.1 ± 1.6 kg/m3
- mass density (26161 kPa): 1449.1 ± 1.6 kg/m3
- mass density (26196 kPa): 1449.4 ± 1.6 kg/m3
- mass density (26255 kPa): 1449.6 ± 1.6 kg/m3
- mass density (26288 kPa): 1449.7 ± 1.6 kg/m3
- mass density (27476 kPa): 1454.6 ± 1.7 kg/m3
- mass density (27515 kPa): 1454.7 ± 1.7 kg/m3
- mass density (27549 kPa): 1454.9 ± 1.7 kg/m3
- mass density (27579 kPa): 1455 ± 1.7 kg/m3
- mass density (27618 kPa): 1455.2 ± 1.7 kg/m3
- mass density (27658 kPa): 1455.4 ± 1.7 kg/m3
- mass density (27685 kPa): 1455.4 ± 1.7 kg/m3
- mass density (27721 kPa): 1455.7 ± 1.7 kg/m3
- mass density (27748 kPa): 1455.7 ± 1.7 kg/m3
- mass density (27786 kPa): 1455.9 ± 1.7 kg/m3
- mass density (27821 kPa): 1456 ± 1.7 kg/m3
- mass density (27852 kPa): 1456 ± 1.7 kg/m3
- mass density (27887 kPa): 1456.3 ± 1.7 kg/m3
- mass density (27918 kPa): 1456.3 ± 1.7 kg/m3
- mass density (27943 kPa): 1456.5 ± 1.7 kg/m3
- mass density (27982 kPa): 1456.6 ± 1.7 kg/m3
- mass density (28017 kPa): 1456.8 ± 1.7 kg/m3
- mass density (28049 kPa): 1456.7 ± 1.7 kg/m3
- mass density (28080 kPa): 1457 ± 1.7 kg/m3
- mass density (28115 kPa): 1457.1 ± 1.7 kg/m3
- mass density (28148 kPa): 1457.2 ± 1.7 kg/m3
- mass density (28180 kPa): 1457.4 ± 1.7 kg/m3
- mass density (28217 kPa): 1457.6 ± 1.7 kg/m3
- mass density (28245 kPa): 1457.7 ± 1.7 kg/m3
- mass density (28276 kPa): 1457.9 ± 1.7 kg/m3
- mass density (28309 kPa): 1457.9 ± 1.7 kg/m3
- mass density (28337 kPa): 1458 ± 1.7 kg/m3
- mass density (28375 kPa): 1458.1 ± 1.7 kg/m3
- mass density (28403 kPa): 1458.3 ± 1.7 kg/m3
- mass density (28445 kPa): 1458.5 ± 1.7 kg/m3
- mass density (28474 kPa): 1458.6 ± 1.7 kg/m3
- mass density (28506 kPa): 1458.7 ± 1.7 kg/m3
- mass density (28534 kPa): 1458.7 ± 1.7 kg/m3
- mass density (28571 kPa): 1459 ± 1.7 kg/m3
- mass density (28603 kPa): 1459.1 ± 1.7 kg/m3
- mass density (28633 kPa): 1459.2 ± 1.7 kg/m3
- mass density (28660 kPa): 1459.4 ± 1.7 kg/m3
- mass density (28691 kPa): 1459.5 ± 1.7 kg/m3
- mass density (28718 kPa): 1459.6 ± 1.7 kg/m3
- mass density (28763 kPa): 1459.8 ± 1.7 kg/m3
- mass density (28799 kPa): 1459.9 ± 1.7 kg/m3
- mass density (28837 kPa): 1459.9 ± 1.7 kg/m3
- mass density (28870 kPa): 1460.1 ± 1.7 kg/m3
- mass density (28904 kPa): 1460.2 ± 1.7 kg/m3
- mass density (28935 kPa): 1460.4 ± 1.7 kg/m3
- mass density (28970 kPa): 1460.5 ± 1.7 kg/m3
- mass density (28997 kPa): 1460.6 ± 1.7 kg/m3
- mass density (29033 kPa): 1460.8 ± 1.7 kg/m3
- mass density (29063 kPa): 1460.9 ± 1.7 kg/m3
- mass density (29088 kPa): 1460.9 ± 1.7 kg/m3
- mass density (29121 kPa): 1461.1 ± 1.7 kg/m3
- mass density (29162 kPa): 1461.2 ± 1.7 kg/m3
- mass density (29188 kPa): 1461.4 ± 1.7 kg/m3
- mass density (29756 kPa): 1463.5 ± 1.7 kg/m3
- mass density (29784 kPa): 1463.7 ± 1.7 kg/m3
- mass density (29822 kPa): 1463.8 ± 1.7 kg/m3
- mass density (29860 kPa): 1464 ± 1.7 kg/m3
- mass density (29886 kPa): 1464 ± 1.7 kg/m3
- mass density (29919 kPa): 1464.2 ± 1.7 kg/m3
- mass density (29949 kPa): 1464.3 ± 1.7 kg/m3
- mass density (30616 kPa): 1466.8 ± 1.7 kg/m3
- mass density (30653 kPa): 1467 ± 1.7 kg/m3
- mass density (30689 kPa): 1467.1 ± 1.7 kg/m3
- mass density (30736 kPa): 1467.2 ± 1.7 kg/m3
- mass density (30764 kPa): 1467.3 ± 1.7 kg/m3
- mass density (30805 kPa): 1467.5 ± 1.7 kg/m3
